# Assay results published in paper PMC10342150, “Artesunate Dry Emulsion Formulation Combined with Antibiotics for Treatment of Helicobacter pylori Infections: In Vitro/In Vivo Evaluation” (International Journal of Molecular Sciences, 2023).
# Tests used:
# [1] = Solubility in simulated gastric fluid (SGF, pH 1.5); format: physicochemical; conditions: 0.5 g in 10 mL SGF pH 1.5, 36.5 °C, 30 min stirring
# Method: An amount of 0.5 g of native artesunate and ADEF was dispersed in 10 mL of simulated gastric fluid (SGF, pH 1.5). All solutions were incubated at 36.5 °C under mild shaking (100 rev/min) in a G24 Environmental Incubator Shaker (New Brunswick Scientific Co., Edison, NJ, USA) for 30 min.
# Helicobacter pylori = assay: Agar disk diffusion assay; format: cell-based; conditions: paper disks, ~20 mg/mL
# Method: Practically, impregnated paper disks with a determined concentration (~20 mg/mL) of ADEF were deposited on the surface of a standardized culture medium previously inoculated with a calibrated inoculum of a pure culture of H. pylori. After incubation, the Petri dishes were examined, and the diameters of the zones of inhibition surrounding the disks were measured. The obtained values were thereafter compared to the critical values of the different antimicrobial standards to determine the clinical categorization (resistant, intermediate, sensitive).
# [2] = parameters: method as in earlier work; conditions: artesunate in acidic form; cited from earlier work
# [3] = parameters: method as in PMID 17694524; conditions: cited from earlier work
# in vivo = conditions: male, Sprague-Dawley, rat, plasma, po, 150 mg/kg
# Method: (§1) The objective of this study was to investigate the pharmacokinetic (PK) profile of ADEF after a single oral (gavage) administration to rats at the following doses: • Low dose: 25 and 50 mg/kg of ADEF; • Mid dose: 100 mg/kg of ADEF; • High dose: 150 mg/kg of ADEF.
# (§2) For comparative study, native artesunate was also included in this study, but only at a high dose of 150 mg/kg.
# (§3) After a 1-week acclimation period, ADEF was administered orally to rats, and blood samples were collected at various time intervals (5, 10, 15, 30, 45, and 60 min) using K2EDTA tubes as anticoagulants. The collected tubes were then placed on wet ice. Subsequently, the samples were centrifuged at 1000× g for 10 min at 4 °C. The resulting plasma was recovered and stored frozen at temperatures below or equal to −60 °C for further analysis.
# (§4) Non-compartmental analysis of the test item and its metabolite concentrations in plasma was performed by using the Phoenix® WinNonlin®6 6.4 software.
# [4] = Pharmacokinetics after single oral (gavage) administration in rats; conditions: different doses (up to 150 mg/kg)
# Method: as §1, §2, §3, §4
# H. pylori PremSS1 = assay: In vivo efficacy against H. pylori in infected mice (bacterial culture and qPCR of stomach); parameters: species or system C57BL/6 mice; conditions: oral, single dose per day for 14 days; ADEF 40 mg/kg, amox 30 mg/kg, PPI 150 mg/kg; bacterial culture and qPCR (Figure 8A,B)
# Description: Animals: A mouse model of H.-pylori-induced disease using pre-murine Sydney strain-1 (PremSS1) in mice C57BL/6 was extensively used in Helicobacter research. The persistence of mouse colonization, distribution, and long-lasting infection is attributable to the strain’s capabilities. For these reasons mice C57BL/6 were selected in this study. In fact, male mice with «specific pathogen-free» status (CHU of Bordeaux, Amélie Raba-Léon place, Bordeaux Cedex) at 6 weeks of age were housed in an acclimatization room for 1 week before experimentation.
# Mouse gavage with H. pylori: Mice were fasted the day before the gavage days. They were force-fed with approximately 10^8 H. pylori PremSS1 in 100 µL of phosphate-buffered saline in the morning and then placed in a cage for the rest of the day under normal conditions. The gavages were carried out on three consecutive days. A bacteria viability test was accomplished post-gavage by platting a bacterial pellet on «Poly-house-made» agar for 24 h. […]
# Each quarter of the mouse stomach was placed in a tube that was RNASE and DNASE free, containing 200 μL of physiological water. […] The remaining 90 µL were extracted for H. pylori quantification using qPCR. […] All samples were prepared in duplicate, and the results were expressed as cfu/mg of stomach tissue. […]
SMILES,Solubility in simulated gastric fluid [1],Inhibition zone (Helicobacter pylori),Water solubility [2],"Stability in aqueous, acidic and basic media [3]",AUC(0-t) (in vivo) [ng·h/mL],Cmax (in vivo) [ng/mL],Tmax (in vivo) [min],half-life (in vivo) [min],Mortality or abnormal signs [4],Effect against H. pylori in infected mice (H. pylori PremSS1)
"C[C@H]1[C@H](OC(=O)CCC(=O)O)O[C@@H]2O[C@@]3(C)CC[C@H]4[C@H](C)CC[C@@H]1[C@@]24OO3 [Native Artesunate, artesunate]",did not dissolve,two distinct zones were observed,about 0.68 % (w/w),unstable,211,701,15,18,no mortality or abnormal signs,–
"COc1ccnc(C[S+]([O-])c2nc3ccc(OC(F)F)cc3[nH]2)c1OC (centres unmarked) [PPI, pantoprazole]",–,–,–,–,–,–,–,–,–,did not exhibit a significant effect
"CC1(C)S[C@@H]2[C@H](NC(=O)[C@H](N)c3ccc(O)cc3)C(=O)N2[C@H]1C(=O)O [amox, amoxicillin]",–,–,–,–,–,–,–,–,–,did not exhibit a significant effect
